# Experimental data as given in ChEMBL document CHEMBL1139296, “Pleuromutilin derivatives having a purine ring. Part 2: influence of the central spacer on the antibacterial activity against Gram-positive pathogens” (2009).
# Tested on: Streptococcus pyogenes
# Test: Antimicrobial activity against Streptococcus pyogenes […] by NCCLS method
# Type: functional
row,Compound,MIC [µg/mL]
1,CC[C@]1(C)C[C@@H](OC(=O)CSC2CCN(C(=O)CCn3cnc4c(N5CCNCC5)nc(N)nc43)CC2)[C@]2(C)[C@H](C)CC[C@]3(CCC(=O)[C@@H]32)[C@@H](C)[C@@H]1O.Cl,0.032
2,C=C[C@]1(C)C[C@@H](OC(=O)CSC2CN(C(=O)CCn3cnc4c(N5CCNCC5)nc(N)nc43)C2)[C@]2(C)[C@H](C)CC[C@]3(CCC(=O)[C@@H]32)[C@@H](C)[C@@H]1O.Cl,≤ 0.004
3,C=C[C@]1(C)C[C@@H](OC(=O)CSC2CCCN(C(=O)CCn3cnc4c(N5CCC(N)C5)ncnc43)C2)[C@]2(C)[C@H](C)CC[C@]3(CCC(=O)[C@@H]32)[C@@H](C)[C@@H]1O.Cl (stereo not given in full),0.008
4,C=C[C@]1(C)C[C@@H](OC(=O)CSC2CCN(C(=O)CCn3cnc4c(N5CCNCC5)nc(N)nc43)C2)[C@]2(C)[C@H](C)CC[C@]3(CCC(=O)[C@@H]32)[C@@H](C)[C@@H]1O.Cl (stereo not given in full),≤ 0.004
5,CC[C@]1(C)C[C@@H](OC(=O)COC2CCN(C(=O)CCn3cnc4c(N5CCC(N)C5)ncnc43)CC2)[C@]2(C)[C@H](C)CC[C@]3(CCC(=O)[C@@H]32)[C@@H](C)[C@@H]1O.Cl (stereo not given in full),0.032

# Tested on: Streptococcus pneumoniae
# Test: Antimicrobial activity against penicillin-resistant Streptococcus pneumoniae KT2524 by NCCLS method
# Type: functional
row,Compound,MIC [µg/mL]
1,CC[C@]1(C)C[C@@H](OC(=O)CSC2CCN(C(=O)CCn3cnc4c(N5CCNCC5)nc(N)nc43)CC2)[C@]2(C)[C@H](C)CC[C@]3(CCC(=O)[C@@H]32)[C@@H](C)[C@@H]1O.Cl,0.063
2,C=C[C@]1(C)C[C@@H](OC(=O)CSC2CN(C(=O)CCn3cnc4c(N5CCNCC5)nc(N)nc43)C2)[C@]2(C)[C@H](C)CC[C@]3(CCC(=O)[C@@H]32)[C@@H](C)[C@@H]1O.Cl,0.25
3,C=C[C@]1(C)C[C@@H](OC(=O)CSC2CCCN(C(=O)CCn3cnc4c(N5CCC(N)C5)ncnc43)C2)[C@]2(C)[C@H](C)CC[C@]3(CCC(=O)[C@@H]32)[C@@H](C)[C@@H]1O.Cl (stereo not given in full),0.016
4,C=C[C@]1(C)C[C@@H](OC(=O)CSC2CCN(C(=O)CCn3cnc4c(N5CCNCC5)nc(N)nc43)C2)[C@]2(C)[C@H](C)CC[C@]3(CCC(=O)[C@@H]32)[C@@H](C)[C@@H]1O.Cl (stereo not given in full),0.125
5,CC[C@]1(C)C[C@@H](OC(=O)COC2CCN(C(=O)CCn3cnc4c(N5CCC(N)C5)ncnc43)CC2)[C@]2(C)[C@H](C)CC[C@]3(CCC(=O)[C@@H]32)[C@@H](C)[C@@H]1O.Cl (stereo not given in full),0.063

# Tested on: Staphylococcus aureus
# Test: Antimicrobial activity against methicillin-susceptible Staphylococcus aureus Smith by NCCLS method
# Type: functional
row,Compound,MIC [µg/mL]
1,CC[C@]1(C)C[C@@H](OC(=O)CSC2CCN(C(=O)CCn3cnc4c(N5CCNCC5)nc(N)nc43)CC2)[C@]2(C)[C@H](C)CC[C@]3(CCC(=O)[C@@H]32)[C@@H](C)[C@@H]1O.Cl,0.25
2,C=C[C@]1(C)C[C@@H](OC(=O)CSC2CN(C(=O)CCn3cnc4c(N5CCNCC5)nc(N)nc43)C2)[C@]2(C)[C@H](C)CC[C@]3(CCC(=O)[C@@H]32)[C@@H](C)[C@@H]1O.Cl,0.5
3,C=C[C@]1(C)C[C@@H](OC(=O)CSC2CCCN(C(=O)CCn3cnc4c(N5CCC(N)C5)ncnc43)C2)[C@]2(C)[C@H](C)CC[C@]3(CCC(=O)[C@@H]32)[C@@H](C)[C@@H]1O.Cl (stereo not given in full),0.25
4,C=C[C@]1(C)C[C@@H](OC(=O)CSC2CCN(C(=O)CCn3cnc4c(N5CCNCC5)nc(N)nc43)C2)[C@]2(C)[C@H](C)CC[C@]3(CCC(=O)[C@@H]32)[C@@H](C)[C@@H]1O.Cl (stereo not given in full),0.25
5,CC[C@]1(C)C[C@@H](OC(=O)COC2CCN(C(=O)CCn3cnc4c(N5CCC(N)C5)ncnc43)CC2)[C@]2(C)[C@H](C)CC[C@]3(CCC(=O)[C@@H]32)[C@@H](C)[C@@H]1O.Cl (stereo not given in full),0.25

# Tested on: Staphylococcus aureus
# Test: Antimicrobial activity against methicillin-resistant Staphylococcus aureus KMP9
# Type: functional
row,Compound,MIC [µg/mL]
1,CC[C@]1(C)C[C@@H](OC(=O)CSC2CCN(C(=O)CCn3cnc4c(N5CCNCC5)nc(N)nc43)CC2)[C@]2(C)[C@H](C)CC[C@]3(CCC(=O)[C@@H]32)[C@@H](C)[C@@H]1O.Cl,0.25
2,C=C[C@]1(C)C[C@@H](OC(=O)CSC2CN(C(=O)CCn3cnc4c(N5CCNCC5)nc(N)nc43)C2)[C@]2(C)[C@H](C)CC[C@]3(CCC(=O)[C@@H]32)[C@@H](C)[C@@H]1O.Cl,2
3,C=C[C@]1(C)C[C@@H](OC(=O)CSC2CCCN(C(=O)CCn3cnc4c(N5CCC(N)C5)ncnc43)C2)[C@]2(C)[C@H](C)CC[C@]3(CCC(=O)[C@@H]32)[C@@H](C)[C@@H]1O.Cl (stereo not given in full),0.5
4,C=C[C@]1(C)C[C@@H](OC(=O)CSC2CCN(C(=O)CCn3cnc4c(N5CCNCC5)nc(N)nc43)C2)[C@]2(C)[C@H](C)CC[C@]3(CCC(=O)[C@@H]32)[C@@H](C)[C@@H]1O.Cl (stereo not given in full),1
5,CC[C@]1(C)C[C@@H](OC(=O)COC2CCN(C(=O)CCn3cnc4c(N5CCC(N)C5)ncnc43)CC2)[C@]2(C)[C@H](C)CC[C@]3(CCC(=O)[C@@H]32)[C@@H](C)[C@@H]1O.Cl (stereo not given in full),0.5

# Tested on: Streptococcus pneumoniae
# Test: Antimicrobial activity against penicillin-susceptible Streptococcus pneumoniae ATCC 49619 by NCCLS method
# Type: functional
row,Compound,MIC [µg/mL]
1,CC[C@]1(C)C[C@@H](OC(=O)CSC2CCN(C(=O)CCn3cnc4c(N5CCNCC5)nc(N)nc43)CC2)[C@]2(C)[C@H](C)CC[C@]3(CCC(=O)[C@@H]32)[C@@H](C)[C@@H]1O.Cl,0.063
2,C=C[C@]1(C)C[C@@H](OC(=O)CSC2CN(C(=O)CCn3cnc4c(N5CCNCC5)nc(N)nc43)C2)[C@]2(C)[C@H](C)CC[C@]3(CCC(=O)[C@@H]32)[C@@H](C)[C@@H]1O.Cl,0.125
3,C=C[C@]1(C)C[C@@H](OC(=O)CSC2CCCN(C(=O)CCn3cnc4c(N5CCC(N)C5)ncnc43)C2)[C@]2(C)[C@H](C)CC[C@]3(CCC(=O)[C@@H]32)[C@@H](C)[C@@H]1O.Cl (stereo not given in full),0.016
4,C=C[C@]1(C)C[C@@H](OC(=O)CSC2CCN(C(=O)CCn3cnc4c(N5CCNCC5)nc(N)nc43)C2)[C@]2(C)[C@H](C)CC[C@]3(CCC(=O)[C@@H]32)[C@@H](C)[C@@H]1O.Cl (stereo not given in full),0.063
5,CC[C@]1(C)C[C@@H](OC(=O)COC2CCN(C(=O)CCn3cnc4c(N5CCC(N)C5)ncnc43)CC2)[C@]2(C)[C@H](C)CC[C@]3(CCC(=O)[C@@H]32)[C@@H](C)[C@@H]1O.Cl (stereo not given in full),0.032

# Tested on: Enterococcus faecium
# Test: Antimicrobial activity against vancomycin-resistant Enterococcus faecium KU1778 by NCCLS method
# Type: functional
row,Compound,MIC [µg/mL]
1,CC[C@]1(C)C[C@@H](OC(=O)CSC2CCN(C(=O)CCn3cnc4c(N5CCNCC5)nc(N)nc43)CC2)[C@]2(C)[C@H](C)CC[C@]3(CCC(=O)[C@@H]32)[C@@H](C)[C@@H]1O.Cl,0.125
2,C=C[C@]1(C)C[C@@H](OC(=O)CSC2CN(C(=O)CCn3cnc4c(N5CCNCC5)nc(N)nc43)C2)[C@]2(C)[C@H](C)CC[C@]3(CCC(=O)[C@@H]32)[C@@H](C)[C@@H]1O.Cl,0.5
3,C=C[C@]1(C)C[C@@H](OC(=O)CSC2CCCN(C(=O)CCn3cnc4c(N5CCC(N)C5)ncnc43)C2)[C@]2(C)[C@H](C)CC[C@]3(CCC(=O)[C@@H]32)[C@@H](C)[C@@H]1O.Cl (stereo not given in full),0.063
4,C=C[C@]1(C)C[C@@H](OC(=O)CSC2CCN(C(=O)CCn3cnc4c(N5CCNCC5)nc(N)nc43)C2)[C@]2(C)[C@H](C)CC[C@]3(CCC(=O)[C@@H]32)[C@@H](C)[C@@H]1O.Cl (stereo not given in full),0.25
5,CC[C@]1(C)C[C@@H](OC(=O)COC2CCN(C(=O)CCn3cnc4c(N5CCC(N)C5)ncnc43)CC2)[C@]2(C)[C@H](C)CC[C@]3(CCC(=O)[C@@H]32)[C@@H](C)[C@@H]1O.Cl (stereo not given in full),0.125

# Tested on: Moraxella catarrhalis
# Test: Antimicrobial activity against Moraxella catarrhalis K1209 by NCCLS method
# Type: functional
row,Compound,MIC [µg/mL]
1,CC[C@]1(C)C[C@@H](OC(=O)CSC2CCN(C(=O)CCn3cnc4c(N5CCNCC5)nc(N)nc43)CC2)[C@]2(C)[C@H](C)CC[C@]3(CCC(=O)[C@@H]32)[C@@H](C)[C@@H]1O.Cl,0.125
2,C=C[C@]1(C)C[C@@H](OC(=O)CSC2CN(C(=O)CCn3cnc4c(N5CCNCC5)nc(N)nc43)C2)[C@]2(C)[C@H](C)CC[C@]3(CCC(=O)[C@@H]32)[C@@H](C)[C@@H]1O.Cl,0.125
3,C=C[C@]1(C)C[C@@H](OC(=O)CSC2CCCN(C(=O)CCn3cnc4c(N5CCC(N)C5)ncnc43)C2)[C@]2(C)[C@H](C)CC[C@]3(CCC(=O)[C@@H]32)[C@@H](C)[C@@H]1O.Cl (stereo not given in full),0.063
4,C=C[C@]1(C)C[C@@H](OC(=O)CSC2CCN(C(=O)CCn3cnc4c(N5CCNCC5)nc(N)nc43)C2)[C@]2(C)[C@H](C)CC[C@]3(CCC(=O)[C@@H]32)[C@@H](C)[C@@H]1O.Cl (stereo not given in full),0.125
5,CC[C@]1(C)C[C@@H](OC(=O)COC2CCN(C(=O)CCn3cnc4c(N5CCC(N)C5)ncnc43)CC2)[C@]2(C)[C@H](C)CC[C@]3(CCC(=O)[C@@H]32)[C@@H](C)[C@@H]1O.Cl (stereo not given in full),0.125

# Tested on: Haemophilus influenzae
# Test: Antimicrobial activity against Haemophilus influenzae TH13 by NCCLS method
# Type: functional
row,Compound,MIC [µg/mL]
1,CC[C@]1(C)C[C@@H](OC(=O)CSC2CCN(C(=O)CCn3cnc4c(N5CCNCC5)nc(N)nc43)CC2)[C@]2(C)[C@H](C)CC[C@]3(CCC(=O)[C@@H]32)[C@@H](C)[C@@H]1O.Cl,1
2,C=C[C@]1(C)C[C@@H](OC(=O)CSC2CN(C(=O)CCn3cnc4c(N5CCNCC5)nc(N)nc43)C2)[C@]2(C)[C@H](C)CC[C@]3(CCC(=O)[C@@H]32)[C@@H](C)[C@@H]1O.Cl,2
3,C=C[C@]1(C)C[C@@H](OC(=O)CSC2CCCN(C(=O)CCn3cnc4c(N5CCC(N)C5)ncnc43)C2)[C@]2(C)[C@H](C)CC[C@]3(CCC(=O)[C@@H]32)[C@@H](C)[C@@H]1O.Cl (stereo not given in full),2
4,C=C[C@]1(C)C[C@@H](OC(=O)CSC2CCN(C(=O)CCn3cnc4c(N5CCNCC5)nc(N)nc43)C2)[C@]2(C)[C@H](C)CC[C@]3(CCC(=O)[C@@H]32)[C@@H](C)[C@@H]1O.Cl (stereo not given in full),1
5,CC[C@]1(C)C[C@@H](OC(=O)COC2CCN(C(=O)CCn3cnc4c(N5CCC(N)C5)ncnc43)CC2)[C@]2(C)[C@H](C)CC[C@]3(CCC(=O)[C@@H]32)[C@@H](C)[C@@H]1O.Cl (stereo not given in full),4

# Tested on: Staphylococcus aureus
# Test: Antimicrobial activity against methicillin-susceptible Staphylococcus aureus infected mouse assessed as survival rate administered iv after 1 hr of infection
# Type: functional
row,Compound,ED50 [mg/kg]
1,CC[C@]1(C)C[C@@H](OC(=O)CSC2CCN(C(=O)CCn3cnc4c(N5CCNCC5)nc(N)nc43)CC2)[C@]2(C)[C@H](C)CC[C@]3(CCC(=O)[C@@H]32)[C@@H](C)[C@@H]1O.Cl,1.66
2,C=C[C@]1(C)C[C@@H](OC(=O)CSC2CN(C(=O)CCn3cnc4c(N5CCNCC5)nc(N)nc43)C2)[C@]2(C)[C@H](C)CC[C@]3(CCC(=O)[C@@H]32)[C@@H](C)[C@@H]1O.Cl,4.07
3,C=C[C@]1(C)C[C@@H](OC(=O)CSC2CCCN(C(=O)CCn3cnc4c(N5CCC(N)C5)ncnc43)C2)[C@]2(C)[C@H](C)CC[C@]3(CCC(=O)[C@@H]32)[C@@H](C)[C@@H]1O.Cl (stereo not given in full),2.02
4,C=C[C@]1(C)C[C@@H](OC(=O)CSC2CCN(C(=O)CCn3cnc4c(N5CCNCC5)nc(N)nc43)C2)[C@]2(C)[C@H](C)CC[C@]3(CCC(=O)[C@@H]32)[C@@H](C)[C@@H]1O.Cl (stereo not given in full),2.61
5,CC[C@]1(C)C[C@@H](OC(=O)COC2CCN(C(=O)CCn3cnc4c(N5CCC(N)C5)ncnc43)CC2)[C@]2(C)[C@H](C)CC[C@]3(CCC(=O)[C@@H]32)[C@@H](C)[C@@H]1O.Cl (stereo not given in full),2.04
